The numbers were not newly measured in patent US20140179719A1, “NOVEL AMORPHOUS SOLID DISPERSIONS OF VALGANCICLOVIR HYDROCHLORIDE” (priority 2012, published 2014), which cites them from elsewhere.

Where two headings read alike, the source gives them in different places.

The conditions of this data set: ganciclovir administered orally.

`Nc1nc(O)c2ncn(COC(CO)CO)c2n1` [Ganciclovir]: the “bioavailability of ganciclovir, oral formulation” value is 6-10%. For the same compound, the “bioavailability of ganciclovir, oral formulation” value (listed as gancilcovir) was 6%.
